PubChem BioAssay AID248 (DTP/NCI, 2004)
Inconclusive results and toxic doses are left out. Cut-off read from the data, not from the text of the source: active = T/C of 150% or more; inactive = T/C below 125%.

Test system: L1210 leukemia ip in BDF1 mice, survival T/C
Assay: NCI In Vivo Anticancer Drug Screen. Data for tumor model L1210 Leukemia (intraperitoneal) in B6D2F1 (BDF1) mice
Conditions: endpoint: mean survival time, higher = longer survival
How it was run: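 Value reflects the ratio of survival in compound-treated mice to survival in vehicle-treated controls, with both groups carrying the same transplanted tumor.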

[1] = dose: 100.0 mg/kg/injection, schedule: Q04DX003 (ip), vehicle: Klucel (hydroxypropylcellulose) (HPC)
[2] = dose: 200.0 mg/kg/injection, schedule: Q04DX003 (ip), vehicle: Klucel (hydroxypropylcellulose) (HPC)
[3] = dose: 400.0 mg/kg/injection, schedule: Q04DX003 (ip), vehicle: Klucel (hydroxypropylcellulose) (HPC)

Measured: T/C

CC(=O)n1c2ccccc2c2ccccc21
inactive: dose: 100.0 mg/kg/injection, schedule: Q04DX002 (ip), vehicle: gum acacia 95 % of control | dose: 200.0 mg/kg/injection, schedule: Q04DX002 (ip), vehicle: gum acacia 88 % of control | dose: 400.0 mg/kg/injection, schedule: Q04DX002 (ip), vehicle: gum acacia 100 % of control

FC(F)(F)c1ccc2c(c1)N(CCCNCCN1CCOCC1)c1ccccc1S2
inactive: dose: 3.12 mg/kg/injection, schedule: Q01DX009 (ip), vehicle: saline 117 % of control | dose: 6.25 mg/kg/injection, schedule: Q01DX009 (ip), vehicle: saline 101 % of control | dose: 12.5 mg/kg/injection, schedule: Q01DX009 (ip), vehicle: saline 101 % of control | dose: 25.0 mg/kg/injection, schedule: Q01DX009 (ip), vehicle: saline 90 % of control | dose: 25.0 mg/kg/injection, schedule: Q04DX003 (ip), vehicle: saline 102 % of control | dose: 50.0 mg/kg/injection, schedule: Q04DX003 (ip), vehicle: saline 123 % of control

CN(Cc1cc(Br)cc(Br)c1O)C1CC2CCC1(C)C2(C)C (stereo not given)
inactive: [1] 88 % of control | [2] 95 % of control | [3] 88 % of control

O=C(Nc1cc(Cl)cc2c1-c1c(Cl)cc(Cl)cc1C2)C(Cl)Cl
inactive: dose: 50.0 mg/kg/injection, schedule: Q04DX003 (ip), vehicle: Klucel (hydroxypropylcellulose) (HPC) 100 % of control | dose: 100.0 mg/kg/injection, schedule: Q01DX009 (ip), vehicle: Klucel (hydroxypropylcellulose) (HPC) 97 % of control | [1] 92 % of control | [2] 94 % of control | [3] 100 % of control

C=CCCCCn1c2ccccc2c2c(C)c3cnccc3c(C)c21
inactive: dose: 100.0 mg/kg/injection, schedule: Q04DX003 (ip), vehicle: saline with Tween-80 91 % of control | dose: 200.0 mg/kg/injection, schedule: Q04DX003 (ip), vehicle: saline with Tween-80 91 % of control | dose: 400.0 mg/kg/injection, schedule: Q04DX003 (ip), vehicle: saline with Tween-80 92 % of control
